{
  "source": "paper PMC10148158",
  "about": "“Mechanism and linkage specificities of the dual retaining β-Kdo glycosyltransferase modules of KpsC from bacterial capsule biosynthesis” (The Journal of Biological Chemistry, 2023)",
  "target": "T1, KpsC-NEc (E. coli KpsC^2-323) (Escherichia coli, UniProt A0A0H2Z2W8)",
  "T1 construct": "N-terminal GT module, residues 2-323, His6-tag kept, expressed in E. coli BL21(DE3)",
  "T1 sequence (A0A0H2Z2W8 entry or part of it)": "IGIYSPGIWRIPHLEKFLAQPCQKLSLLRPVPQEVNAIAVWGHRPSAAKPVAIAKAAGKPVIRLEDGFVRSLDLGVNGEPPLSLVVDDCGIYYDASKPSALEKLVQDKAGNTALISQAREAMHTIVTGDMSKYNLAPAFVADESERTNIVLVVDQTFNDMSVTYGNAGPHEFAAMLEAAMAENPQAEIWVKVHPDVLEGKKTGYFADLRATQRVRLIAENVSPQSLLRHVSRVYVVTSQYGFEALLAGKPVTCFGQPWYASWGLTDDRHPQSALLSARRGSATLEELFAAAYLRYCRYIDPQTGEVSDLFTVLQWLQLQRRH",
  "test": "LC-MS of intact protein",
  "assay_type": "biochemical",
  "settings": "covalent; Kdo on Asp160; CMP-Kdo made in situ by KdsB; no acceptor",
  "data": [
    {"compound": "Nc1ccn([C@@H]2O[C@H](COP(=O)(O)O[C@@]3(C(=O)O)C[C@@H](O)[C@@H](O)[C@@H]([C@H](O)CO)O3)[C@@H](O)[C@H]2O)c(=O)n1", "note": "[CMP-Kdo]", "values": [
      {"measurement": "Kdo adduct mass increase", "result": "The native KpsC-NEc enzyme therefore appears capable of forming covalent Kdo adducts in vitro."}
    ]}
  ]
}
